The test system of data set [1] is NotchΔE-EGFP. The data set is described as follows: Fluorescence microscopy of reporter localization in HeLa NotchΔE-EGFP cells. It counts as cell-based. Conditions: for localization of NotchΔE-EGFP/NICD-EGFP: 10 μM compound, 24 h; for toxicity in cells: inferred from reversibility after wash-out. The procedure: FIG. 10: Phenotypes of Notch inhibitors are fully reversible. HeLa NotchΔE-EGFP cells plated in LabTek coverglass were incubated for 18 h with 10 iM of indicated compounds, washed and incubated for indicated times in cell culture medium. Cells were imaged by live-microscopy. […] Scalebar, 10 im.
For a detailed analysis of subcelluar distribution of NotchΔE/NICD the resolution of the HCS images was not sufficient. Therefore, the reporter cell line was plated on coverslips and incubated with 10 μM of individual compounds from the final hit list. After 24 h the localization of NotchΔE-EGFP/NICD-EGFP was determined by fluorescence microscopy. […] (FIG. 8).
Immunofluorescence stainings were made using standard procedures^55. Imaging was performed on a Zeiss Axiovert200 or an Axio Imager, using 63× 1.4NA objectives and Zeiss Axiovision software. For live-imaging cells were plated on Lab-Tek chambered coverglass (Thermo-Fisher). Images were assembled and processed using Adobe Photoshop. For displaying weakly stained ER-tubules/sheets non-linear changes in gamma-settings were used.

In the next data set the test system is γ-secretase. The data set is described as follows: In vitro γ-secretase assay with isolated membranes. Conditions: 37° C. The class given is biochemical. As for the experimental part:
FIG. 3: Effect of compounds on NotchΔE-EGFP, APP and Klotho trafficking and processing. a) HEK293 stably expressing APPswe or Klotho (KI) were incubated with DAPT or compounds (10 μM) for 16 h. Media were collected, cells lysed and both assayed by Western blotting using indicated antibodies. m, mature; im, immature; s, shedded ectodomain; CTF, C-terminal fragment. b) Membranes from HeLa-NotchΔE-EGFP and APPswe cells were isolated and subjected to a γ-secretase in vitro assay in the presence of DAPT or compounds as indicated. NICD and AICD were detected by Western Blotting using antibodies against the C-terminus of APP (top) or antibodies specific for NICD (bottom). c) Quantitation from 5 independent experiments.
To test whether FLI-06 affected other membrane proteins, Klotho, a type I protein processed like APP and Notch^20, was analyzed. […] To analyze γ-secretase activity, in vitro assays using isolated membranes were performed (FIG. 3b, c). Production of NICD-EGFP and AICD (APP intracellular domain) were assayed. Both were produced in vitro at 37° C. but not at 4° C., and their production was inhibited by DAPT.
For assaying AICD formation, membranes of HEK293 cells stably expressing APP with the Swedish mutation were isolated and incubated for 4 h at 37° C. according to Sastre et al.^52. For assaying NICD formation, membranes from HeLa NotchΔE-EGFP cells were mixed with membranes from HeLa NotchΔE-EGFP cells that were pre-treated with 10 μM DAPT overnight to enrich substrate. After incubation samples were loaded onto either 8% SDS-PA gels (NICD) or 10-20% Tris-Tricine gels (AICD), blotted and probed with cleaved-Notch antibody or antibody 6687 against APP C-terminus^53. Chemoluminescence was quantified on a LAS-4000 (Fuji) with MultiGauge software.

A further data set concerns SEAP. Put plainly: Secreted alkaline phosphatase (SEAP) assay in HeLa cells. The class given is cell-based. The following applies: medium measured via photometry. As for the experimental part: FIG. 18: FLI-06 inhibits secretion of secreted alkaline phosphates; FLI-06 kills cancerous, Notch dependent T-cells. a) The secreted alkaline phosphatase (SEAP) assay was carried out. Medium was collected and SEAP secretion was measured via photometry. […] The cells were grown in suspension with the indicated amounts of FLI-06 or DMSO control and growth was determined via FACS analysis.
In order to confirm the inhibitory effect of FLI-06 on secretion we transfected HeLa cells with a plasmid encoding a secreted alkaline phosphatase (SEAP).

Data set [2] concerns NotchΔE-EGFP. The data set is described as follows: cells. It counts as cell-based. The text has this:
To identify novel regulatory factors involved in Notch trafficking/processing an image-based high content screen was set up. […] NotchΔE-EGFP is a direct substrate for γ-secretase at the PM, and under physiological conditions is proteolytically processed to NICD-EGFP that translocates into the nucleus (for scheme see FIG. 1b), resulting in a strong nuclear EGFP-staining in steady state^15 (FIG. 1d). […] Importantly, changes in subcellular localization of the reporter are amenable to quantitation by automated microscopy^15. Accordingly, reporter fluorescence was determined in the nucleus (nuc) and in a ring around the nucleus (enuc), and the ratio enuc/nuc was evaluated (schematized in FIG. 1c). Thereafter, the assay design was functionally validated. […] The assay also reliably detected trafficking defects in the secretory pathway. […] Taken together, the assay was validated for reliably detecting concentration and time dependent changes in trafficking and processing of the Notch reporter.
Cells were seeded in 96-well plates at a density of 5000 cells/well in 100 μl medium. The next day, 100 μl medium containing the respective test compounds was added. Cells were incubated for 16 h, fixed and processed for automated microscopy. For the putative gamma-secretase inhibitors the enuc intensity was divided by the DAPT control and for the trafficking inhibitors normalized percentage inhibition against DAPT/DMSO controls of log 2 transformed nuc/enuc ratios were calculated. Relative activity values were read into “R” (http://www.r-project.org/) and EC50 estimates were calculated using four-parameter log-logistic fit with the package “drc”^51.
Images were acquired on an ArrayScan VTi automated microscope (ThermoFisher) and numerical data were extracted with the Compartmental Analysis BioApplication of the bundled software suite. Compound screening raw data were collected at the FMP and data transformation was performed according to standard procedures (ref 17 and supp. Refs 6-7).

Another data set relates to BIP and ATF6. Conditions: human, 24 h.
A further data set deals with microtubuli or actin. Put plainly: Microtubule and actin integrity in HeLa cells. The following applies: 4 h. It counts as cell-based.
In another data set the test system is COPII vesicles. Put plainly: In vitro COPII budding assay with permeabilized cells. It counts as biochemical. Conditions: for budding of COPII vesicles after pretreatment of cells: cells pretreated with FLI-06 for 4 hours.

Peptide text beside a SMILES is read from it. * marks the point of attachment. Cbz = O=C(OCc1ccccc1)*; OtBu = CC(C)(C)O*

Consider `Cc1ccc(NC(=O)C(NS(=O)(=O)c2cccc3nsnc23)C(C)C)nc1` (stereo not drawn) [FLI-15], for which, in the data set with NotchΔE-EGFP [1], the “localization of NotchΔE-EGFP/NICD-EGFP” value is “accumulation of the reporter at the PM and in perinuclear Golgi-like structures”; the toxicity in cells result is listed as “not acutely toxic in cells”. The “NICD-EGFP and AICD production in isolated membranes” value (“NICD-EGFP and AICD production” below) in the data set with γ-secretase is “clearly reduced NICD-EGFP and AICD production”.
What is called EC50 is the concentration that produces a half-maximal response. Turning to `CC1=C(C(=O)OC2CCCCC2)C(c2ccc([N+](=O)[O-])cc2)C2=C(CC(C)(C)CC2=O)N1` (stereo not drawn) [FLI-06, Cyclohexyl 4-(4′-nitrophenyl)-2,7,7-trimethyl-5-oxo-1,4,5,6,7,8-hexahydroquinoline-3-carboxylate], in the data set with SEAP, the “secretion of SEAP” value was “inhibition of secretion of SEAP”. Besides, the “activity in NotchΔE-EGFP cells (enuc/nuc ratios)” value in the data set with NotchΔE-EGFP [2] (SAR and prior-art comparison, FIG. 5a/5b) is on record as “equally active as the initial screening hit”. In addition, the EC50 with NotchΔE-EGFP [2] (assay not given, read-out: EC50 as secretion inhibitor) was found to be 2300 nM. In addition, in the data set on BIP and ATF6, the “ER-stress (BIP up-regulation, ATF6 luciferase)” value was “only very mild ER-stress after 24 h”. In the data set on NotchΔE-EGFP [1], the “localization of NotchΔE-EGFP/NICD-EGFP” value was “reduced nuclear fluorescence and localization in intracellular membranes”; the toxicity in cells entry was “not acutely toxic in cells”. Besides, the microtubule network result in the data set on microtubuli or actin (1.5 ig/ml nocodazole or 10 iM FLI-06) is given as “does not act on the cytoskeleton”. Besides, the “actin polymerization and distribution” value with microtubuli or actin (2 iM cytochalasin D or 10 iM FLI-06) is given as “unaffected”. Moreover, in the data set with COPII vesicles (100 μM FLI-06 in reaction), the “budding of COPII vesicles after pretreatment of cells” value was “strongly”. Further, in the data set with COPII vesicles (no FLI-06 in reaction), the “budding of COPII vesicles after pretreatment of cells” value is given as “slightly inhibited”. In the data set on COPII vesicles (no FLI-06 pretreatment of cells), the “COPII budding reaction, compound added directly to the assay” value was “did not inhibit the COPII budding reaction”. Moreover, the “NICD-EGFP and AICD production” value in the data set on γ-secretase is recorded as “did not affect γ-secretase in isolated membranes”.
`CC(C)CC(NC(=O)C(Cc1ccccc1)NC(=O)C1CCCN1C(=O)OCc1ccccc1)C(=O)OC(C)(C)C` (stereo not drawn) [FLI-19] (Cbz-Pro-Phe-Leu-OtBu; configuration not given here): in the data set with NotchΔE-EGFP [1], the “localization of NotchΔE-EGFP/NICD-EGFP” value is “accumulation of the reporter at the PM and in perinuclear Golgi-like structures”; the toxicity in cells result is on record as “not acutely toxic in cells”. In addition, the “NICD-EGFP and AICD production” value in the data set on γ-secretase is “did not affect γ-secretase in isolated membranes”.
With `CC(=O)Nc1ccc2nc(NC(=O)CC34CC5CC(CC(C5)C3)C4)sc2c1` [FLI-20], in the data set on NotchΔE-EGFP [1], the “localization of NotchΔE-EGFP/NICD-EGFP” value is “accumulation of the reporter at the PM and in perinuclear Golgi-like structures”; the toxicity in cells result is “not acutely toxic in cells”. The “NICD-EGFP and AICD production” value in the data set on γ-secretase was “clearly reduced NICD-EGFP and AICD production”.
With `Cn1c2ccccc2c2c(C(=O)N3CCN(Cc4ccc5c(c4)OCO5)CC3)cn(C3CCCC3)c(=O)c21` [FLI-14], in the data set with NotchΔE-EGFP [1], the “localization of NotchΔE-EGFP/NICD-EGFP” value was “accumulation of the reporter at the PM and in perinuclear Golgi-like structures”; the toxicity in cells result is recorded as “not acutely toxic in cells”. For the same compound, in the data set with γ-secretase, the “NICD-EGFP and AICD production” value was “did not affect γ-secretase in isolated membranes”.
